Data reported in ChEMBL document CHEMBL1201862, “PubChem BioAssay data set” (2004).
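Exposure lasted 48 hours, with cells grown in 96-well plates and compounds tested at five concentrations. Here, GI50 denotes the concentration required for 50% inhibition of growth.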 Activity calls are given as the source filed them. No stated cut-off is given here; in the data, active = GI50 up to about 1.1 µM and inactive = higher.

Experiments:
Experiment in all cases: inhibition of tumour cell growth, NCI panel, 48 h
[1] = test system: NCI-H23
[2] = test system: HCT-116
[3] = test system: DU-145
[4] = test system: M14
[5] = test system: LOX IMVI
[6] = test system: HL-60
[7] = test system: CCRF-CEM
[8] = test system: OVCAR-4
[9] = test system: COLO 205
[10] = test system: SF-295
[11] = test system: OVCAR-5
[12] = test system: PC-3
[13] = test system: BT-549
[14] = test system: K562
[15] = test system: UO-31
[16] = test system: SK-MEL-28
[17] = test system: MDA-MB-435
[18] = test system: HCT-15
[19] = test system: SNB-19
[20] = test system: OVCAR-8
[21] = test system: HCC 2998
[22] = test system: CAKI-1
[23] = test system: MDA-N
[24] = test system: U-251
[25] = test system: IGROV-1
[26] = test system: SW-620
[27] = test system: MCF7
[28] = test system: T47D
[29] = test system: SN12C
[30] = test system: SK-OV-3
[31] = test system: SK-MEL-5
[32] = test system: KM12
[33] = test system: UACC-257
[34] = test system: SK-MEL-2
[35] = test system: HT-29
[36] = test system: RPMI-8226
[37] = test system: SR
[38] = test system: Hs-578T
[39] = test system: 786-0
[40] = test system: OVCAR-3
[41] = test system: NCI-H522
[42] = test system: NCI-H460
[43] = test system: HOP-92
[44] = test system: NCI/ADR-RES
[45] = test system: UACC-62
[46] = test system: MOLT-4
[47] = test system: NCI-H226
[48] = test system: A549
[49] = test system: SF-539
[50] = test system: ACHN
[51] = test system: TK-10
[52] = test system: SF-268
[53] = test system: MDA-MB-231
[54] = test system: EKVX
[55] = test system: SNB-75
[56] = test system: HOP-62
[57] = test system: Malme-3M

In the case of `Cc1ccc(C(=O)NN=C(/N=N/c2cccc(C)c2)c2ccc(N(C)C)cc2)cc1`, the GI50 [1] is reported as > 100 µM (inactive), the GI50 [2] is reported as > 100 µM (inactive) and the GI50 [3] is reported as 28.4 µM (inactive). For the same compound, the GI50 [4] was > 100 µM (inactive), the GI50 [5] was > 100 µM (inactive) and the GI50 [6] was > 100 µM (inactive). The GI50 [7] was > 100 µM (inactive), the GI50 [8] was > 100 µM (inactive) and the GI50 [9] was > 100 µM (inactive). For the same compound, the GI50 [10] was > 100 µM (inactive), the GI50 [11] was > 100 µM (inactive) and the GI50 [12] was > 100 µM (inactive). The GI50 [13] was > 100 µM (inactive), the GI50 [14] was > 100 µM (inactive) and the GI50 [15] was > 100 µM (inactive). The GI50 [16] was > 100 µM (inactive), the GI50 [17] was > 100 µM (inactive) and the GI50 [18] was over 100 µM. The GI50 [19] was > 100 µM (inactive), the GI50 [20] was > 100 µM (inactive) and the GI50 [21] was > 100 µM (inactive). The GI50 [22] was > 100 µM (inactive), the GI50 [23] was 50.9 µM (inactive) and the GI50 [24] was > 100 µM (inactive). The GI50 [25] was > 100 µM (inactive), the GI50 [26] was > 100 µM (inactive) and the GI50 [27] was > 100 µM (inactive). The GI50 [28] was 2.82 µM (inactive), the GI50 [29] was > 100 µM (inactive) and the GI50 [30] was 64 µM (inactive). The GI50 [31] was > 100 µM (inactive), the GI50 [32] was > 100 µM (inactive) and the GI50 [33] was > 100 µM (inactive). For the same compound, the GI50 [34] was > 100 µM (inactive), the GI50 [35] was > 100 µM (inactive) and the GI50 [36] was > 100 µM (inactive). The GI50 [37] was > 100 µM (inactive), the GI50 [38] was > 100 µM (inactive) and the GI50 [39] was > 100 µM (inactive). The GI50 [40] was > 100 µM (inactive), the GI50 [41] was > 100 µM (inactive) and the GI50 [42] was > 100 µM (inactive). The GI50 [43] was 51.8 µM (inactive), the GI50 [44] was > 100 µM (inactive) and the GI50 [45] was > 100 µM (inactive). The GI50 [46] was > 100 µM (inactive), the GI50 [47] was > 100 µM (inactive) and the GI50 [48] was > 100 µM (inactive). For the same compound, the GI50 [49] was > 100 µM (inactive), the GI50 [50] was > 100 µM (inactive) and the GI50 [51] was > 100 µM (inactive). The GI50 [52] was > 100 µM (inactive), the GI50 [53] was > 100 µM (inactive) and the GI50 [54] was > 100 µM (inactive).

With `Clc1ccc2nc3c(c(-c4ccccc4)nn3-c3ccccc3)c(-c3ccccc3)c2c1` the GI50 [1] was > 100 µM (inactive), the GI50 [2] was > 100 µM (inactive) and the GI50 [3] was > 100 µM (inactive). The GI50 [4] was > 100 µM (inactive), the GI50 [5] was > 100 µM (inactive) and the GI50 [6] was > 100 µM (inactive). The GI50 [55] was > 100 µM (inactive), the GI50 [7] was > 100 µM (inactive) and the GI50 [8] was > 100 µM (inactive). For the same compound, the GI50 [9] was > 100 µM (inactive), the GI50 [10] was > 100 µM (inactive) and the GI50 [11] was > 100 µM (inactive). The GI50 [12] was > 100 µM (inactive), the GI50 [13] was > 100 µM (inactive) and the GI50 [14] was > 100 µM (inactive). For the same compound, the GI50 [15] was > 100 µM (inactive), the GI50 [16] was > 100 µM (inactive) and the GI50 [17] was > 100 µM (inactive). The GI50 [18] was over 100 µM, the GI50 [19] was > 100 µM (inactive) and the GI50 [20] was > 100 µM (inactive). For the same compound, the GI50 [21] was > 100 µM (inactive), the GI50 [23] was > 100 µM (inactive) and the GI50 [24] was > 100 µM (inactive). For the same compound, the GI50 [25] was > 100 µM (inactive), the GI50 [26] was > 100 µM (inactive) and the GI50 [27] was > 100 µM (inactive). For the same compound, the GI50 [28] was > 100 µM (inactive), the GI50 [29] was > 100 µM (inactive) and the GI50 [30] was > 100 µM (inactive). For the same compound, the GI50 [31] was > 100 µM (inactive), the GI50 [32] was > 100 µM (inactive) and the GI50 [34] was > 100 µM (inactive). The GI50 [35] was > 100 µM (inactive), the GI50 [36] was > 100 µM (inactive) and the GI50 [37] was > 100 µM (inactive). The GI50 [38] was > 100 µM (inactive), the GI50 [56] was > 100 µM (inactive) and the GI50 [39] was > 100 µM (inactive). For the same compound, the GI50 [40] was > 100 µM (inactive), the GI50 [41] was > 100 µM (inactive) and the GI50 [42] was > 100 µM (inactive). The GI50 [43] was > 100 µM (inactive), the GI50 [44] was > 100 µM (inactive) and the GI50 [45] was > 100 µM (inactive). For the same compound, the GI50 [46] was > 100 µM (inactive), the GI50 [47] was > 100 µM (inactive) and the GI50 [48] was > 100 µM (inactive). The GI50 [50] was > 100 µM (inactive), the GI50 [51] was > 100 µM (inactive) and the GI50 [52] was > 100 µM (inactive). The GI50 [53] was > 100 µM (inactive), the GI50 [54] was > 100 µM (inactive) and the GI50 [57] was > 100 µM (inactive).
